From article PMC4277420, “Assessment of [^125I]WYE-230949 as a Novel Histamine H3 Receptor Radiopharmaceutical” (PLoS ONE, 2014) come the findings set out here.

A short description of the series: Ex vivo HPLC analysis of rat plasma and brain samples (% parent compound). The format is in vivo. The method, then: Animal experiments were conducted under the UK Animals (Scientific Procedures) Act 1986. This work was approved by the ethical review committee at the University of Glasgow (PPL: 60/3436) prior to the start of study. Naïve male Sprague-Dawley rats (Harlan, UK), weighing 217 to 352 g were either conscious or anaesthetised (2.5–3% isoflurane via a tracheostomy and artificial ventilation in 70/30% N2O/O2) for the duration of the experiment. Anaesthetised rats had their respiration and temperature monitored throughout. [^125I]WYE-230949 was administered via a femoral vein cannula to anaesthetised rats or via the lateral tail vein to conscious rats. The injected dose for each rat was calculated by measuring the syringe in a dose calibrator before and after [^125I]WYE-230949 administration. The radioactive and radiochemical amounts administered to individual rats ranged from 12.6 to 24.5 MBq and 0.32 to 0.70 µg/kg respectively in all in vivo studies.
After intravenous injection of [^125I]WYE-230949 blood samples were obtained by terminal cardiac puncture from anaesthetised rats or via the lateral tail vein from conscious rats at either 30 or 120 min. Rats were then immediately killed by cervical dislocation and the brain removed. Plasma was separated from whole blood by centrifugation and the protein precipitated by combining 400 µl of plasma with 400 µl of ice-cold acetonitrile. A sample (200 µl) of the supernatant was made up to 1 ml with distilled water and injected onto the HPLC column. The brain was homogenised in 2 ml saline, protein precipitated by addition of 2 ml of ice-cold acetonitrile. Samples were then centrifuged (1300 rpm; 200×g) and the supernatant added to 1 ml acetonitrile before being centrifuged again (1300 rpm; 200×g). The acetonitrile was evaporated under a stream of argon gas and the remaining 1 ml injected onto the HPLC column. Analysis of the brain and plasma metabolite samples was performed using the analytical HPLC methodology described. The % parent compound present was calculated.

Turning to `O=C(c1ccc(Cn2cnc3cccc([125I])c32)cc1)N1CC[C@H](N2CCCC2)C1` [[^125I]WYE-230949], the “parent compound remaining in plasma” value is recorded as “less than 38%” (30 minutes after injection) and “less than 8%” (after 120 min). In addition, the “Percentage of parent compound detected” value by setting is: (Brain, 30 min, anaesthetised) 27±4 (n = 3) %; (Brain, 30 min, conscious) 46±2 (n = 4) %; (Brain, 120 min, anaesthetised) 32±5 (n = 3) %; (Brain, 120 min, conscious) 36±6 (n = 4) %; (Plasma, 30 min, anaesthetised) 14±2 (n = 4) %; (Plasma, 30 min, conscious) 38±9 (n = 6) %. In addition, the “Percentage of parent compound detected” value is 3±3 (n = 4) % (Plasma, 120 min, anaesthetised) and 8±5 (n = 4) % (Plasma, 120 min, conscious).
